# Laboratory results reported in patent US7429564B2, “Oral insulin therapy” (Emisphere Technologies, Inc., priority 2002, dated 2008).
# Key:
# blood glucose = assay: Example 7: postprandial blood glucose excursions after standardized breakfast, type 2 diabetic patients; format: in vivo, human
# Method: A randomized, 3-period crossover, double-blind, double-dummy study was conducted in order to compare the effect (i.e., the postprandial pharmacokinetic and pharmacodynamic profiles) of an oral insulin formulation with that of s.c. administered short acting insulin on postprandial blood glucose excursions in Type 2 Diabetic subjects without any antidiabetic medication.
# All patients received the same oral and SC injection treatments in a randomized sequence. […]
# Blood samples for blood glucose determination (0.25 mL per sample) were taken at −1 min (baseline), 5 minutes after start of meal intake and thereafter in 5 minute intervals until 120 minutes, 10 minute intervals until 240 minutes, and 15 minute intervals until 360 minutes after start of meal intake (45 samples per session). Blood glucose concentrations were measured immediately after sample collection using an automated GOD method (Super GL Ambulance Glucose Analyzer, Ruhrtal Labortechnik, Delecke-Möhnesee, Germany). […]
# For pharmacodynamic assessment, the following parameters were calculated: Maximal blood glucose excursion (BGmax), time to BGmax (tBGmax) Area under the blood glucose excursion curve in defined time-intervals (AUCBG 0-1h, AUCBG 0-2h, AUCBG 0-3h, AUCBG 0-4h, AUCBG 0-6h), maximal absolute blood glucose concentrations (BGabsmax), time to BGabsmax (tBGabsmax). […]
# [1] = Delivery agent plasma concentrations in monkeys after oral administration; format: in vivo; details: monkey, plasma, oral, 300 mg
# Method: Similar results were obtained when delivery agents 1-3 were administered orally to monkeys and the plasma concentrations of the delivery agents monitored over time and the AUC calculated.
# serum glucose = assay: Effective clinical dose of delivery agent in humans (delivery efficiency); format: in vivo, human; details: active agent heparin
# Method: Next, delivery agents 1-3 were compared for the ability to efficiently transport an active agent across the GI mucosa in a biologically active form by determining the relationship between delivery agent dose, dose of active agent and the glucose response. The effective dose of delivery agent necessary to deliver a therapeutic dose of active agent and produce a therapeutic effect was measured. For delivery agent 3, the active agent was insulin, and the therapeutic effect was determined by the ability of the delivery agent/insulin combination to lower serum glucose by at least 10% within one hour post administration. For delivery agents 1 and 2, the active agent was heparin, and the therapeutic effect was determined by […]
# [2] = Delivery agent plasma concentrations in humans after oral delivery agent capsules; format: in vivo, human; details: plasma; oral capsules, 750 mg, healthy human volunteers
# Method: Delivery agents 1-3 were investigated for their ability to penetrate the GI mucosa. The plasma concentration of each delivery agent was measured in human subjects after oral administration of delivery agent loaded capsules as a measure of each delivery agent's penetration efficiency.
# Blood sampling for plasma delivery agent concentration determination (2 mL in sodium heparin tube) were drawn 15 minutes before dosing, and at 5, 10, 15, 30, and 45 minutes and 1, 1.5, 2, 3, 4, 6, 8, and 12 hours post-dose (14 samples per treatment) for delivery agent measurements in all treatment groups.
# Two 18-gauge IV lines were situated prior to dosing; one for blood sampling, and the other for potential infusion of 20% glucose for subjects in groups 2 and 3. The subjects in group 1 only had one cannula inserted. The blood samples were centrifuged at 3000 rpm for a period of fifteen minutes at a temperature from about 2° C. to 8° C., within one hour of sample collection. Using a plastic pipette and without disturbing the red cell layer, the plasma from the collection tube was pipetted in duplicate for each analysis, blood glucose, Human Insulin, C-peptide, delivery agent into pre-labeled polypropylene tubes. The samples were stored at −70° C. until analysis.
# The indicated doses were ingested by healthy human volunteers and the plasma concentrations of the delivery agents were monitored over time and the area under the curve (AUC) calculated. […] Similarly, oral administration of 800 mg of delivery agent number 3 produced more than a 23 fold greater penetration of the GI mucosa in humans than did oral administration of 750 mg of delivery agent 2 having n equal to 9 alkyl.
AUC [1] [ng·h/mL],AUC [2] [ng·h/mL],Molecule,"Mean fasting blood glucose at baseline (−1 minute) (blood glucose; 12 U SC, dosed 15 min before meal, mean (range)) [mg/dL]","Time to maximal glucose excursion (median) (blood glucose; SC 12 U, 15 min before meal) [h]",Effective clinical dose of delivery agent (serum glucose) [Mg]
,,"SC short-acting insulin: subcutaneous injected short acting insulin, Humalog injection 100 U/ml from Eli Lilly",143.11,1.3,
82,2040,"O=C(O)CCCCCCCCCNC(=O)c1ccccc1O [2 (SNAD), reference compound]",,,1500
45,3500,"O=C(O)CCCCCCCNC(=O)c1ccccc1O [1 (SNAC), reference compound]",,,2400
